Measured values published in paper PMC5567048, “A novel c-di-GMP binding domain in glycosyltransferase BgsA is responsible for the synthesis of a mixed-linkage β-glucan” (Scientific Reports, 2017).
Substitutions are numbered along the chain they refer to.

Key:
C-BgsA [1] = biological target: T1, C-BgsA (Sinorhizobium meliloti, UniProt Q92WG2, D608A); experiment: SPR solution competition against immobilised […]′-AHC-c-di-GMP chip; type: binding
T1 construct: gene SM_b20391

C-BgsA [2] = biological target: T2, C-BgsA (Sinorhizobium meliloti, UniProt Q92WG2, R605A); experiment: as above; type: binding
T2 construct: gene SM_b20391
T2 sequence (Q92WG2 entry or part of it R605A): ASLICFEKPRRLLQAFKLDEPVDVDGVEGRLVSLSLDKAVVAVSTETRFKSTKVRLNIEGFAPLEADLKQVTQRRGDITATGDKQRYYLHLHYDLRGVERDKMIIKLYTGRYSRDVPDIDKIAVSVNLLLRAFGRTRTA

C-BgsA [3] = biological target: T3, C-BgsA (Sinorhizobium meliloti, UniProt Q92WG2, R599A); experiment: as above; type: binding
T3 construct: gene SM_b20391
T3 sequence (Q92WG2 entry or part of it R599A): as the sequence (Q92WG2 entry or part of it R605A) above, with R74A, A80R counted along it

C-BgsA [4] = biological target: T4, C-BgsA (Sinorhizobium meliloti, UniProt Q92WG2, R656A); experiment: as above; type: binding
T4 construct: gene SM_b20391
T4 sequence (Q92WG2 entry or part of it R656A): as the sequence (Q92WG2 entry or part of it R605A) above, with A80R, R131A counted along it

C-BgsA [5] = biological target: T5, C-BgsA (Sinorhizobium meliloti, UniProt Q92WG2); experiment: as above; type: binding
T5 construct: gene SM_b20391
T5 sequence (Q92WG2 526-664): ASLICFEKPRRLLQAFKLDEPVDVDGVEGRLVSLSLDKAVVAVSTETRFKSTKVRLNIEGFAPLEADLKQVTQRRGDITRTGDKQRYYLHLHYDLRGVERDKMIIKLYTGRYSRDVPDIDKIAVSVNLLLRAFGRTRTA

C-BgsA [6] = biological target: T6, C-BgsA (Sinorhizobium meliloti, UniProt Q92WG2, H615A); experiment: as above; type: binding
T6 construct: gene SM_b20391
T6 sequence (Q92WG2 entry or part of it H615A): as the sequence (Q92WG2 entry or part of it R605A) above, with A80R, H90A counted along it

C-BgsA [7] = biological target: T7, C-BgsA (Sinorhizobium meliloti, UniProt Q92WG2, Y633A); experiment: as above; type: binding
T7 construct: gene SM_b20391
T7 sequence (Q92WG2 entry or part of it Y633A): as the sequence (Q92WG2 entry or part of it R605A) above, with A80R, Y108A counted along it

C-BgsA [8] = biological target: T5, C-BgsA; experiment: as above; type: binding; details: weak competitor; c-di-GMP at the same concentration gave 98%; 20 mM MOPS pH 8.0, 300 mM NaCl, 25 °C
C-BgsA [9] = biological target: T8, C-BgsA (Sinorhizobium meliloti, UniProt Q92WG2, G635R); experiment: SPR direct binding, immobilised ligand
T8 construct: gene SM_b20391
T8 sequence (Q92WG2 526-664 G635R): T5 sequence (Q92WG2 526-664) with G110R

C-BgsA [10] = biological target: T5, C-BgsA; experiment: SPR direct binding, immobilised ligand
C-BgsA [11] = biological target: T9, C-BgsA (Sinorhizobium meliloti, UniProt Q92WG2, G635V); experiment: SPR direct binding, immobilised ligand
T9 construct: gene SM_b20391
T9 sequence (Q92WG2 526-664 G635V): T5 sequence (Q92WG2 526-664) with G110V

T1 sequence (Q92WG2 entry or part of it D608A): as the sequence (Q92WG2 entry or part of it R605A) above, with A80R, D83A counted along it

SMILES: Nc1nc2c(ncn2[C@@H]2O[C@@H]3CO[P@](=O)(O)O[C@H]4[C@@H](O)[C@H](n5cnc6c(=O)[nH]c(N)nc65)O[C@@H]4CO[P@](=O)(O)O[C@H]3[C@H]2O)c(=O)[nH]1 [c-di-GMP]
- EC50 (C-BgsA [1]): 0.27 ± 0.07 µM
- EC50 (C-BgsA [2]): 0.14 ± 0.01 µM
- EC50 (C-BgsA [3]): 372 ± 114 µM
- EC50 (C-BgsA [4]): 0.4 ± 0.05 µM
- EC50 (C-BgsA [5]): 0.27 ± 0.01 µM
- EC50 (C-BgsA [6]): 292 ± 73 µM
- EC50 (C-BgsA [7]): 0.23 ± 0.01 µM

SMILES: Nc1ncnc2c1ncn2[C@@H]1O[C@@H]2COP(=O)(O)O[C@H]3[C@@H](O)[C@H](n4cnc5c(N)ncnc54)O[C@@H]3COP(=O)(O)O[C@H]2[C@H]1O [c-di-AMP]
- % reduction of C-BgsA binding at 500 μM (C-BgsA [8]): 17%

SMILES: NCCCCCCNC(=O)O[C@@H]1[C@@H]2OP(=O)(O)OC[C@H]3O[C@@H](n4cnc5c(=O)[nH]c(N)nc54)[C@H](O)[C@@H]3OP(=O)(O)OC[C@H]2O[C@H]1n1cnc2c(=O)[nH]c(N)nc21 [2′-AHC-c-di-GMP]
- Kd (C-BgsA [9]): 0.19 µM
- Kd (C-BgsA [10]): 0.23 µM
- Kd (C-BgsA [11]): 0.14 µM
